Test results reported in patent publication US10464925B2, “Methods to induce targeted protein degradation through bifunctional molecules” (Dana-Farber Cancer Institute, Inc., priority 2015, dated 2019).
Where two headings read alike, the source gives them in different places.

What was measured:
[1] = molecular target: BRDT (Homo sapiens, UniProt Q58F21); assay: BRDT IC50 (Table 4); assay type: binding; conditions: read-out: IC50 (nM) BRDT
[2] = tested on: MV4; 11; assay: Cell viability, ATPlite 48 hours, MV4-11; assay type: cell-based; conditions: Homo sapiens, 11 cells
[3] = tested on: 797; assay: Cell viability, 797 cells (Table 4); assay type: cell-based; conditions: read-out: IC50 (nM) 797
[4] = molecular target: T1, CRBN-DDB1 (Homo sapiens, UniProt Q96SW2); assay: CRBN-DDB1 Ligand-Displacement AlphaScreen Assay (thalidomide competition); assay type: binding; conditions: biotin-thalidomide competition; read-out: THAL ALPHA (IC50);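 note: streptavidin donor and nickel chelate acceptor bead proximity signal after 30 min incubation, normalized with no-protein background as 0% and DMSO wells as 100% activity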
T1 construct: 6xHis (given for the complex); made in house; host or cells: Sf9 cells (Invitrogen), pFastBac

[5] = molecular target: LRRK2 (Homo sapiens, UniProt Q5S007); assay: LRRK2 IC50 (Table 4); assay type: biochemical
[6] = molecular target: T2, BRD4 (Homo sapiens, UniProt O60885); assay: BRD4 AlphaScreen; assay type: binding; parameters: […]; His tag (inferred from capture on Ni-coated acceptor beads)
[7] = molecular target: T3, CRBN (Homo sapiens, UniProt Q96SW2); assay: Intracellular CRBN Engagement Assay (dFKBP7 rescue); assay type: cell-based; conditions: competition with 80 nM dFKBP7, 3 hours; read-out: FKBP7 rescue (EC50)
T3 construct: endogenous in cells

[8] = molecular target: T2, BRD4; assay: Immunoblot for BRD4 in MV4-11 cells; assay type: cell-based
[9] = tested on: MV4-11; assay: Analysis of apoptotic cells by Caspase Glo assay; assay type: cell-based; conditions: MV4-11, 4 or 8 hours treatment, assessed at 24 hours
[10] = molecular target: FKBP12 (36V) (Homo sapiens, UniProt P62942, F37V); assay: FKBP12 (36V) Ligand-Displacement AlphaScreen Assay; assay type: binding; conditions: biotin-SLF displacement, read-out: IC50 (nM) FKBP 36V
[11] = molecular target: FKBP12 (WT) (Homo sapiens, UniProt P62942); assay: FKBP12 (WT) Ligand-Displacement AlphaScreen Assay; assay type: binding; conditions: biotin-SLF displacement, read-out: IC50 (nM) FKBP

Compound	IC50 [1]	IC50 [2]	IC50 [3]	IC50 [4]	IC50 [5]	IC50 ([6]; read-out: BRD4 Alpha (IC50))	IC50 ([6]; read-out: IC50 (nM) BRD4)	EC50 [7]	BRD4 degradation by treatment alone [8]	induction of apoptosis after pulsed treatment and drug washout [9]	IC50 [10]	IC50 [11]
COc1cc(C(=O)NCCCCNC(=O)COc2cccc3c2C(=O)N(C2CCC(=O)NC2=O)C3=O)ccc1Nc1ncc2c(n1)N(C)c1ccccc1C(=O)N2C (stereo not drawn) [dBET11]	2900 nM	3.38 nM	> 20000 nM	0.0251 µM	7.3 nM	958 nM	958 nM	2430 µM	–	–	–	–
Cc1sc2c(c1C)C(c1ccc(Cl)cc1)=N[C@@H](CC(=O)OC(C)(C)C)c1nnc(C)n1-2 [JQ1]	–	–	–	–	–	–	–	–	insufficient to induce BRD4 degradation	did not yield a pronounced apoptotic response	–	–
CCC(C)(C)C(=O)C(=O)N1CCCC[C@H]1C(=O)O[C@H](CCc1ccc(OC)c(OC)c1)c1cccc(NC(=O)CCC(=O)NCCCCNC(=O)COc2cccc3c2C(=O)N(C2CCC(=O)NC2=O)C3=O)c1 (stereo partly drawn) [dFKBP-1]	–	–	–	–	–	–	–	–	–	–	237 nM	274 nM
COc1cc(C(=O)NCCCOCCOCCOCCCNC(=O)COc2cccc3c2C(=O)N(C2CCC(=O)NC2=O)C3=O)ccc1Nc1ncc2c(n1)N(C)c1ccccc1C(=O)N2C (stereo not drawn) [dBET12]	5870 nM	> 20000 nM	> 20000 nM	0.0238 µM	32 nM	–	–	34.4 µM	–	–	–	–
